In patent publication US12527773B2, “Flavi-block: a pan-flavivirus inhibitor” (Baden-Württemberg Stiftung GmbH, priority 2020, dated 2026):
Like-named read-outs stand apart in the source and are kept apart here.

Experiments:
KUNV = test: RT-qPCR analysis of virus genomes, KUNV; assay type: cell-based, Kunjin virus; conditions: West Nile virus
Description: Vero cells were infected with KUNV at an MOI of 1 for 2 h (post infection), after which virus was removed, and fresh maintenance medium containing 2% FCS together with the indicated concentration of C10 added. For co-treat condition, Vero cells were infected with KUNV at an MOI of 1 in the presence of C10 for 2 h, followed by removal of the virus/C10 inoculums, and addition of fresh 2% fetal calf serum maintenance medium.
Viral RNA was extracted using Isolate II RNA extraction kit (Bioline), and the absolute number of RNA copies determined by Taqman One Step RT-qPCR (Applied Biosystems) by extrapolation from a standard curve generated from in vitro—transcribed virus RNA.
It was decided to test the ability of C10 to inhibit the flaviviruses DENV1-4, KUNV and ZIKV, in addition to the paramyxovirus RSV, as a control.

[1] = system: hematopoietic stem cell formation; test: Effect on zebrafish hematopoietic stem cell formation (in situ runx-1+c-myb); assay type: in vivo; conditions: 36 hpf
Description: Zebrafish embryos were exposed 20-30 min after fertilization to differing concentrations of the compounds C10 and D1 (5 μM; 15 μM; 25 μM) or to medium containing the corresponding solvent (DMSO) concentration. Therefore, 3-5 embryos were sorted into each of three wells of a 96 well plate containing 200 μl of medium. For phenotype analysis, triplicates were imaged after 6-7 h post fertilization (hpf) at approximately shield stage, after 24 hpf and after 48 hpf. Dead +unfertilized embryos were removed. For imaging at 24 hpf +48 hpf; embryos were anesthetized using MESAB. (A) Diagramm showing the percentage of embryos at each time point either developing normal (blue color) or with the indicated phenotype. (B) representative images of embryos treated with the indicated compounds, or controls at the respective time points. (C) To additionally elucidate the influence on hematopoietic stem cell formation, approx. half of the embryos were sampled at 36 hpf and an in situ staining for runx-1+c-myb was performed. Shown are representative images of hematopoietic stem cell formation with the treatment indicated.
Embryos were exposed 20-30 min after fertilization to differing concentrations of the compounds C10 and D1 (5 μM; 15 μM; 25 μM) or to medium containing the corresponding solvent (DMSO) concentration. […]

FluAV = test: IC50 in established virological assays (Table 1), FluAV; assay type: cell-based; conditions: Influenza A virus
HeLa-LC5-RIC cells = test: Cytotoxicity in HeLa-LC5-RIC cells (Cell Titer Glo); assay type: cell-based
Description: Cell viability was measured via the presence of ATP using the Promega Cell Titer Glo kit according to the manufacturer's instructions. Luminescence was detected using the Cytation3 by Biotek. […] (B) The same set of data as shown in FIG. 4A was plotted in a line graph. […] (D) As for FIG. 4A, Huh7.5 cells (1.0×10^4 cells/well) were seeded and incubated with C10 at the indicated concentrations for the indicated time points before measurement of viability using the Promega Cell Titer Glo kit.
It is shown that compound C10 is not toxic even a high concentrations of up to 40 μM.

DENV-2 = test: Antiviral effect on DENV (virus release and entry), Vero cells, MOI 5; assay type: cell-based, Dengue virus; conditions: co-treatment
Description: (A) Vero cells were seeded and infected with DENV-2 at a multiplicity of infection (MOI) of 5. For co-treatment cells were incubated with a premixed suspension of drug and virus, for post-treatment with virus only for 2 h. Cells were subsequently washed with PBS and cultivated for co-treatment in DMEM supplemented with 2% FCS, for post-treatment in DMEM supplemented with 2% FCS spiked with the indicated concentrations of C10. The drug containing medium for post-treated cells was removed after 2 h and replenished with fresh DMEM supplemented with 2% FCS. 24 h after infection the supernatants were used for a Plaque assay. (B) RNA extraction; n=3 with SEM. (C, D) Cells were lysed for Western blot analysis using antibodies against viral proteins NS3 and NS5 and tubulin as a loading control.
For this purpose, Vero cells were plated and infected with DENV-2 at an infection multiplicity (MOI) of 5. For co-treatment, the cells were incubated with a previously mixed suspension of active substance and virus, for post-treatment with the virus alone, each for 2 h. The cells were then washed with PBS and cultivated for co-treatment in DMEM with 2 % FCS, for post-treatment in DMEM with 2 % FCS mixed with the indicated concentrations of compound C10. For the post-treated cells, the medium containing the active substance was removed after 2 h and replaced by fresh medium with 2 % FCS. […]

[2] = Metabolic stability in mouse liver microsomes; conditions: for % Remain. Mean of 2: with NADPH; for % Remain. without cofactor, Mean of 2: without NADPH cofactor
Description: Microsomal incubations were carried out in 96-well plates in 5 aliquots of […] each (one for each time point). […] Control incubations were performed replacing the NADPH-cofactor system with PBS. […] Incubations were performed in duplicates. Five time points over 40 minutes had been analyzed. The reactions were stopped by adding 12 volumes of 90% acetonitrile-water to incubation aliquots, followed by protein sedimentation by centrifuging at 5500 rpm for 3 minutes. […]. Supernatants were analyzed using the HPLC system coupled with tandem mass spectrometer.
The elimination constant (kel), half-life (t½) and intrinsic clearance (Clint) were determined in plot of In(AUC) versus time, using linear regression analysis (In order to indicate the quality of the linear regression analysis, the R (correlation coefficient) values are provided. In some cases, the last time point is excluded from the calculations to ensure acceptable logarithmic linearity of decay): […]

HIV = test: IC50 in established virological assays (Table 1), HIV; assay type: cell-based
Description: In summary, a set of C10 derivatives (FIG. 12) was designed, synthesized and tested against HCV (which is considered as an established system to monitor drug effects against Flaviviridae) as well as DENV for comprehensive structure-activity relationship (SAR) analysis and target validation. IC50 and CC50 values for compound C10 were determined in established virological assays (Table 1). […] Further, said experiments underline the specificity of compound C10 for flaviviruses.

With `CCN1/C(=C\C=C\c2sc3cc(NC(C)=O)ccc3[n+]2CC)Sc2cc(NC(C)=O)ccc21.[I-]` [C10, 6-acetamido-2-((1E,3E)-3-(6-acetamido-3-ethylbenzo[d]thiazol-2(3H)-ylidene)prop-1-en-1-yl)-3-ethylbenzo[d]thiazol-3-ium iodide] the EC50 (KUNV; read-out: EC50 from RT-qPCR analysis, KUNV, c.t.) was 0.31 ± 0.18 µM, the EC50 (KUNV; read-out: EC50 from RT-qPCR analysis, KUNV, p.i.) was 1.68 ± 0.64 µM and the “hematopoietic stem cell formation” value [1] was “no difference to the WT embryos”. The IC50 (FluAV) was about 5 µM, the cytotoxicity (HeLa-LC5-RIC cells) was “not toxic” and the “viral proteins in cells (Western blot NS3, NS5)” value (DENV-2; 1 μM, compared to DMSO) was “viral proteins are detectable in the cells, albeit at lower amounts”. For the same compound, the “productive infection (Western blot NS3, NS5)” value (DENV-2; 10 μM) was “prevents a productive infection of the cells”, the half-life at 2 mM ([2]; male, Balb/c, mouse, microsomes, pH 7.4) was 5.79 h and the CIint ([2]; mouse liver microsomes) was 5 µL/min/mg. The Kel ([2]; mouse liver microsomes) was 0.002 min⁻¹, the “stability in mouse hepatic microsomal test system” value ([2]; mouse, microsomes) was “good stability” and the “% Remain. Mean of 2” value ([2]; 0.42 mg protein per ml, 0 min) was 100%. The “% Remain. Mean of 2” value ([2]; 10 min) was 100%, the “% Remain. Mean of 2” value ([2]; 20 min) was 96% and the “% Remain. Mean of 2” value ([2]; 30 min) was 95%. The “% Remain. Mean of 2” value ([2]; 40 min) was 88%, the “% Remain. without cofactor, Mean of 2” value ([2]; 0 min) was 100% and the “% Remain. without cofactor, Mean of 2” value ([2]; 40 min) was 86%. For the same compound, the “activity against HIV” value (HIV) was “does not act on HIV” and the IC50 (HIV; Human immunodeficiency virus 1, HIV) was over 100 µM.
